Measurements reported in article PMC10746543, “Design principles for cyclin K molecular glue degraders” (Nature Chemical Biology, 2023).
Where “and” joins values, the source holds several entries; their conditions need not be identical. Equal values may be shown once.

Target: T1, CDK12–cyclin K and DDB1 (Homo sapiens, UniProt Q16531+Q9NYV4, K965R)
T1 construct: His6–CDK12 (a.a. 713–1,052); full-length or beta-propeller B domain deletion (ΔBPB: a.a. 396–705 deleted) constructs of His6–DDB1ΔBPB, StrepII–Avi–DDB1, or His6–Spy–DDB1; made in house; host or cells: Trichoplusia ni High Five insect cells (baculovirus)
Experiment: TR-FRET ternary complex formation assay (compound titration)
Assay type: binding
Details: for TR-FRET signal at compound concentration: replicate titrations
In short: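 A time delay of 70 μs preceded acquisition, limiting background fluorescence; the ratio of emission at 520 versus 490 nm gave the TR-FRET value.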

[1] = compound concentration 0.468 nM
[2] = compound concentration 7.92001 nM
[3] = compound concentration 15.84 nM
[4] = compound concentration 30.96 nM
[5] = compound concentration 62.6401 nM
[6] = compound concentration 125.28 nM

T1 sequence (Q9NYV4 713-1052 K965R): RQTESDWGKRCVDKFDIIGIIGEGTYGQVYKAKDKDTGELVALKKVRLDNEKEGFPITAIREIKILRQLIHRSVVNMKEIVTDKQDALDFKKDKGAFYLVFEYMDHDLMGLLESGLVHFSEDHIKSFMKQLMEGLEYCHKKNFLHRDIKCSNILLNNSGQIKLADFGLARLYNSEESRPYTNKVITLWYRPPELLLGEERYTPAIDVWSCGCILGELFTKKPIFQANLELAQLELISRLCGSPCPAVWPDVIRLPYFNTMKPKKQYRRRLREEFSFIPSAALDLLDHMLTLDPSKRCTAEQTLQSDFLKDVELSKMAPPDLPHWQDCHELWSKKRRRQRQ
T1 sequence (O75909 1-267 partner): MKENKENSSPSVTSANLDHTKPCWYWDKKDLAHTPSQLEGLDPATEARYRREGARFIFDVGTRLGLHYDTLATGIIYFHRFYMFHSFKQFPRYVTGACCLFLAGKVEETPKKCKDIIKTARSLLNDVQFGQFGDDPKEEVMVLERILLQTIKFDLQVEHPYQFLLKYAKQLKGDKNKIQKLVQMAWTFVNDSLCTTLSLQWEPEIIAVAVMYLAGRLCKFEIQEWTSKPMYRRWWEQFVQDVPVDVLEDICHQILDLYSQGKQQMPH
T1 sequence (Q16531 whole entry): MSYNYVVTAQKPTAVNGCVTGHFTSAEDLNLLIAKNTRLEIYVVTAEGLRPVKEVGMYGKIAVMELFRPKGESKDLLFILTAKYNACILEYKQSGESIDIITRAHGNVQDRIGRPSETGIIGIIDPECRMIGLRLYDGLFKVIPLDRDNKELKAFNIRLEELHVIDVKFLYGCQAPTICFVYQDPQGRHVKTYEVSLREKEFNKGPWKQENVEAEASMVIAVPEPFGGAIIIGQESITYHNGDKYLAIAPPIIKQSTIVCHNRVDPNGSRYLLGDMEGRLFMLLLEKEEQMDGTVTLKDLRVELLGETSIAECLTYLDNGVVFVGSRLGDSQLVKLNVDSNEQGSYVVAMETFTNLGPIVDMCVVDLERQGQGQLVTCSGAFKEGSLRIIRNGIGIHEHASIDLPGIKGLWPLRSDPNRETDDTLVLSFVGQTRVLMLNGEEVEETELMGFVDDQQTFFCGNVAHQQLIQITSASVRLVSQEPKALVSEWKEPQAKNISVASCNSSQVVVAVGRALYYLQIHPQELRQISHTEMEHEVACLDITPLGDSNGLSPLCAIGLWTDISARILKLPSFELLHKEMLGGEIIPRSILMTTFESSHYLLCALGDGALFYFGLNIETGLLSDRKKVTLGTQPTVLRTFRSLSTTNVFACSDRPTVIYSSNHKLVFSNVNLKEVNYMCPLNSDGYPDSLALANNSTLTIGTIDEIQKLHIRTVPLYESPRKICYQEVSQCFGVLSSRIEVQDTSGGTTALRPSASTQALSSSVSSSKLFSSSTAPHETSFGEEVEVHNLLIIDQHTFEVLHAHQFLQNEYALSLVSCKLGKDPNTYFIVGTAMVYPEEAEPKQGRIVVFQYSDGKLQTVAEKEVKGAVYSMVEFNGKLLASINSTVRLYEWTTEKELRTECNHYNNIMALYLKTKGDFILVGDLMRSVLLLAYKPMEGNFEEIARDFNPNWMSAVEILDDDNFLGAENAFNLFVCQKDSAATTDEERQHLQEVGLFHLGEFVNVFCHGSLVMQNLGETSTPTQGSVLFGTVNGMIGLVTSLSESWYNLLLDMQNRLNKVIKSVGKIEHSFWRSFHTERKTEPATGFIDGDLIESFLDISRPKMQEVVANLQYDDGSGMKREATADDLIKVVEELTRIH

With `CCC(CO)Nc1nc(NCc2ccc(-c3ccccn3)cc2)c2ncn(C(C)C)c2n1` (stereo not drawn) [CR8, reference compound] the “TR-FRET signal, individual replicate” value [1] was 0.3192 and 0.333 and 0.3266 and 0.1622 and 0.1822 and 0.1545 and 0.1541, the “TR-FRET signal at compound concentration 0.468 nM” value (compound concentration 0.468 nM, raw replicate titration data) was 0.3192 and 0.333 and 0.3266 and 0.1622 and 0.1822 and 0.1545 and 0.1541 and 0.2195 and 0.2132 and 0.1986 and 0.2005 and 0.1618 and 0.1794 and 0.2366 and 0.2374 and 0.2769 and 0.2739 and 0.31 and the “TR-FRET signal at compound concentration 0.468 nM” value (compound concentration 0.468 nM, raw titration data) was 0.3192 and 0.333 and 0.3266 and 0.1622 and 0.1822 and 0.1545 and 0.1541 and 0.2195 and 0.2132 and 0.1986 and 0.2005 and 0.1618 and 0.1794 and 0.2366 and 0.2374 and 0.2769 and 0.2739 and 0.31. For the same compound, the “TR-FRET signal at compound concentration” value [1] was 0.3192 and 0.333 and 0.3266 and 0.1622 and 0.1822 and 0.1545 and 0.1541, the “TR-FRET signal, individual replicate” value (compound concentration 2.16 nM) was 0.4573 and 0.4311 and 0.4305 and 0.2659 and 0.27 and 0.2373 and 0.2241 and the “TR-FRET signal at compound concentration 2.16 nM” value (compound concentration 2.16 nM, raw replicate titration data) was 0.4573 and 0.4311 and 0.4305 and 0.2659 and 0.27 and 0.2373 and 0.2241 and 0.3119 and 0.3007 and 0.2892 and 0.2693 and 0.2407 and 0.2691 and 0.3343 and 0.3434 and 0.3949 and 0.3941 and 0.4244. The “TR-FRET signal at compound concentration 2.16 nM” value (compound concentration 2.16 nM, raw titration data) was 0.4573 and 0.4311 and 0.4305 and 0.2659 and 0.27 and 0.2373 and 0.2241 and 0.3119 and 0.3007 and 0.2892 and 0.2693 and 0.2407 and 0.2691 and 0.3343 and 0.3434 and 0.3949 and 0.3941 and 0.4244, the “TR-FRET signal at compound concentration” value (compound concentration 2.16 nM) was 0.4573 and 0.4311 and 0.4305 and 0.2659 and 0.27 and 0.2373 and 0.2241 and the “TR-FRET signal, individual replicate” value (compound concentration 3.6 nM) was 0.7291 and 0.6022 and 0.6555 and 0.4637 and 0.4981 and 0.4299 and 0.4143 and 0.532. The “TR-FRET signal at compound concentration 3.6 nM” value (compound concentration 3.6 nM, raw replicate titration data) was 0.7291 and 0.6022 and 0.6555 and 0.4637 and 0.4981 and 0.4299 and 0.4143 and 0.532 and 0.5274 and 0.5046 and 0.4937 and 0.4479 and 0.5082 and 0.5733 and 0.5902 and 0.6794 and 0.6674 and 0.7173, the “TR-FRET signal at compound concentration 3.6 nM” value (compound concentration 3.6 nM, raw titration data) was 0.7291 and 0.6022 and 0.6555 and 0.4637 and 0.4981 and 0.4299 and 0.4143 and 0.532 and 0.5274 and 0.5046 and 0.4937 and 0.4479 and 0.5082 and 0.5733 and 0.5902 and 0.6794 and 0.6674 and 0.7173 and the “TR-FRET signal at compound concentration” value (compound concentration 3.6 nM) was 0.7291 and 0.6022 and 0.6555 and 0.4637 and 0.4981 and 0.4299 and 0.4143 and 0.532. For the same compound, the “TR-FRET signal, individual replicate” value [2] was 1.345 and 0.9894 and 0.9813 and 0.8825 and 0.9549 and 0.8747 and 0.8749 and 0.9605, the “TR-FRET signal at compound concentration 7.92001 nM” value (compound concentration 7.92001 nM, raw replicate titration data) was 1.345 and 0.9894 and 0.9813 and 0.8825 and 0.9549 and 0.8747 and 0.8749 and 0.9605 and 0.982 and 0.9498 and 0.9487 and 0.89 and 1.021 and 1.066 and 1.149 and 1.341 and 1.311 and 1.1731 and the “TR-FRET signal at compound concentration 7.92001 nM” value (compound concentration 7.92001 nM, raw titration data) was 1.345 and 0.9894 and 0.9813 and 0.8825 and 0.9549 and 0.8747 and 0.8749 and 0.9605 and 0.982 and 0.9498 and 0.9487 and 0.89 and 1.021 and 1.066 and 1.149 and 1.341 and 1.311 and 1.1731. The “TR-FRET signal at compound concentration” value [2] was 1.345 and 0.9894 and 0.9813 and 0.8825 and 0.9549 and 0.8747 and 0.8749 and 0.9605, the “TR-FRET signal, individual replicate” value [3] was 2.359 and 1.808 and 1.67 and 1.71 and 1.978 and 1.839 and 1.833 and 1.762 and the “TR-FRET signal at compound concentration 15.84 nM” value (compound concentration 15.84 nM, raw replicate titration data) was 2.359 and 1.808 and 1.67 and 1.71 and 1.978 and 1.839 and 1.833 and 1.762 and 1.792 and 1.805 and 1.852 and 1.758 and 1.925 and 1.999 and 2.166 and 2.456 and 2.406 and 2.268. The “TR-FRET signal at compound concentration 15.84 nM” value (compound concentration 15.84 nM, raw titration data) was 2.359 and 1.808 and 1.67 and 1.71 and 1.978 and 1.839 and 1.833 and 1.762 and 1.792 and 1.805 and 1.852 and 1.758 and 1.925 and 1.999 and 2.166 and 2.456 and 2.406 and 2.268, the “TR-FRET signal at compound concentration” value [3] was 2.359 and 1.808 and 1.67 and 1.71 and 1.978 and 1.839 and 1.833 and 1.762 and the “TR-FRET signal, individual replicate” value [4] was 3.429 and 2.93 and 2.851 and 3.1006 and 3.279 and 3.156 and 3.142 and 2.862. The “TR-FRET signal at compound concentration 30.96 nM” value (compound concentration 30.96 nM, raw replicate titration data) was 3.429 and 2.93 and 2.851 and 3.1006 and 3.279 and 3.156 and 3.142 and 2.862 and 2.958 and 2.99 and 2.943 and 2.896 and 3.197 and 3.095 and 3.319 and 3.517 and 3.418 and 3.349, the “TR-FRET signal at compound concentration 30.96 nM” value (compound concentration 30.96 nM, raw titration data) was 3.429 and 2.93 and 2.851 and 3.1006 and 3.279 and 3.156 and 3.142 and 2.862 and 2.958 and 2.99 and 2.943 and 2.896 and 3.197 and 3.095 and 3.319 and 3.517 and 3.418 and 3.349 and the “TR-FRET signal at compound concentration” value [4] was 3.429 and 2.93 and 2.851 and 3.1006 and 3.279 and 3.156 and 3.142 and 2.862. The “TR-FRET signal, individual replicate” value [5] was 3.992 and 3.667 and 3.67 (2×) and 3.796 and 3.836 and 3.683 and 3.652, the “TR-FRET signal at compound concentration 62.6401 nM” value (compound concentration 62.6401 nM, raw replicate titration data) was 3.992 and 3.667 and 3.67 (2×) and 3.796 and 3.836 and 3.683 and 3.652 and 3.6831 and 3.54 and 3.542 and 3.62 and 3.792 and 3.69 and 3.855 and 3.914 and 3.849 and 3.7896 and the “TR-FRET signal at compound concentration 62.6401 nM” value (compound concentration 62.6401 nM, raw titration data) was 3.992 and 3.667 and 3.67 (2×) and 3.796 and 3.836 and 3.683 and 3.652 and 3.6831 and 3.54 and 3.542 and 3.62 and 3.792 and 3.69 and 3.855 and 3.914 and 3.849 and 3.7896. The “TR-FRET signal at compound concentration” value [5] was 3.992 and 3.667 and 3.67 (2×) and 3.796 and 3.836 and 3.683 and 3.652, the “TR-FRET signal, individual replicate” value [6] was 4.095 and 3.873 and 3.877 and 4.034 and 3.962 and 3.842 and 3.836 and 3.935 and the “TR-FRET signal at compound concentration 125.28 nM” value (compound concentration 125.28 nM, raw replicate titration data) was 4.095 and 3.873 and 3.877 and 4.034 and 3.962 and 3.842 and 3.836 and 3.935 and 3.986 and 3.722 and 3.719 and 3.7404 and 3.636 and 3.869 and 4.026 and 4.013 and 4.003 and 3.8874. For the same compound, the “TR-FRET signal at compound concentration 125.28 nM” value (compound concentration 125.28 nM, raw titration data) was 4.095 and 3.873 and 3.877 and 4.034 and 3.962 and 3.842 and 3.836 and 3.935 and 3.986 and 3.722 and 3.719 and 3.7404 and 3.636 and 3.869 and 4.026 and 4.013 and 4.003 and 3.8874, the “TR-FRET signal at compound concentration” value [6] was 4.095 and 3.873 and 3.877 and 4.034 and 3.962 and 3.842 and 3.836 and 3.935 and the “TR-FRET signal, individual replicate” value (compound concentration 244.8 nM) was 4.223 and 4.06 and 4.046 and 4.132 and 4.096 and 3.922 and 3.897 and 4.118.
